According to patent US12065438B2, “Substituted tricyclic compounds as indoleamine 2,3-dioxygenase inhibitors” (Merck Sharp & Dohme LLC, priority 2019, dated 2024):

What was measured:
[1] = target: T1, IDO1 (Homo sapiens, UniProt P14902); test: IDO1 Human Whole Blood Assay; format: cell-based; details: LPS and IFNγ 100 ng/mL, overnight (18 h), kynurenine by LC/MS/MS
Protocol: IDO1 Human Whole Blood Assay
Compounds to be tested were serially diluted in ten 3-fold steps in DMSO starting from 10 mM. 3 μL of compound dilutions or DMSO alone were then dispensed from the dilution plate into a polypropylene 96-well assay plate containing 97 μL of RPMI medium using an Echo 555 acoustic liquid handler (Labcyte). LPS and IFNγ was prepared in RPMI medium to a 10× of final conc. (1000 ng/mL), final concentration is 100 ng/mL.
240 μL of blood was transferred to each of the wells of a v-bottom 96 well plate. 30 μL of compound was transferred from intermediate dilution plate, and incubated for 15 min. 30 μL from stimulants was then transferred to blood and mixed thoroughly. Plate was covered with breathable membrane and incubated at 37° C. for overnight (18 h).
On day 2, isotope labeled standard solutions of kynurenine and tryptophan was made in water at 10× concentration and 30 μL was added to the blood at 3 μM final concentration. The assay plates were centrifuged at 300×G for 10 min with no brake to separate plasma from red blood cells. 60 μL of plasma samples was removed without disturbing red blood cells. Plasma was diluted with RPMI in 1:1 ratio and proteins were precipitated out with two volumes of Acetonitrile. The plates were centrifuged at 4000×G for 60 min. 20 μL of supernatant was carefully transferred to a 384 well plate containing 40 μL of 0.1% formic acid in water and analyzed by LC/MS/MS.
LC/MS/MS analyses were performed using Thermo Fisher's LX4-TSQ Quantum Ultra system. This system consists of four Agilent binary high-performance liquid chromatography (HPLC) pumps and a TSQ Quantum Ultra triple quadrupole MS/MS instrument. For each sample, 5 μL were injected onto an Atlantis T3 column (2.1 mm×150 mm, 3 μm particle size) from Waters. The mobile phase gradient pumped at 0.8 mL/min was used to elute the analytes from the column at 25° C. The elution started at 0% B increasing linearly to 25% B at 6.5 min, holding at 25% for 1 min, re-equilibrating to 10 min. Mobile phase A consisted of 0.1% formic acid in water. Mobile phase B consisted of 0.1% of formic acid in acetonitrile. Data were acquired in positive mode using a HESI interface. The operational parameters for the TSQ Quantum Ultra instrument were a spray voltage of 4000 V, capillary temperature of 380° C., vaporizer temperature 400° C., shealth gas 60 arbitrary units, Aux gas 20 arbitrary units, tube lens 85 and collision gas 1.2 mTorr. SRM chromatograms of kynurenine (Q1: 209.2>Q3:94.0) and internal standard (Q1: 215.3>Q3:98.2) were collected for 90 sec. The peak area was integrated by Xcalibur Quan software. The ratios between the kynurenine generated in the reaction and 2D6-Kynurenine spiked-in internal standard were used to generate percentage inhibition and IC50 values. Compounds were titrated and IC50's were calculated by 4 parameter sigmoidal curve fitting formula.

[2] = target: T1, IDO1; test: IDO1 Cellular Assay in HeLa Cells Stimulated with IFNγ; format: cell-based; design: endogenous in cells; host or cells: HeLa cells stimulated with IFNγ; details: HeLa cells stimulated with IFNγ 100 ng/mL, 300 uM L-tryptophan, about 48 hours, fluorescence readout; read-out: IDO1 HELA Cell Assay, IC50
Protocol: Biological Assays IDO1 Cellular Assay in HeLa Cells Stimulated with IFNγ HeLa cells were cultured in complete HeLa culture medium (90% EMEM, 10% heat-inactivated fetal bovine serum) and expanded to about 1×10^9 cells. The cells were then collected and frozen down at 1×10^7 cells/vial in 1 mL frozen medium (90% complete HeLa culture medium, 10% DMSO). Compounds to be tested were serially diluted in ten 3-fold steps in DMSO starting from 10 mM DMSO stocks in Echo low volume plate(s). Compound dilutions or DMSO alone were then dispensed from the dilution plate(s) into Greiner black 384-well assay plate(s) (catalog #781086, 50 nL/well) using an Echo 550 acoustic liquid handler (Labcyte). Frozen HeLa cells were thawed and transferred into HeLa assay medium (99% complete HeLa culture medium, 1% Pen/Strep) with 20 mL medium/vial of cells. The cells were spun down at 250 g in a table top centrifuge for 5 min and suspended in same volume of HeLa assay medium. The cells were then counted and adjusted to a density of 2×10^5 cells/mL in HeLa assay medium. Sterile L-tryptophan were added to the cells with final concentration of 300 uM L-tryptophan. A small aliquot (2 mL/plate) of HeLa cells were set aside and were not treated with IFNγ, to serve as the Max-E control. The rest of HeLa cells were added with sterile IFNγ (Cat #285-IF, R & D systems) with a final concentration of 100 ng/mL. HeLa cells with and without IFNγ were dispensed to the respective wells of 384-well assay plates containing the compounds. The plates were incubated for about 48 hours at a 37° C., 5% CO2 incubator. Afterwards, 12 μL of 0.5 M methyl isonipecotate in dimethyl sulfoxide were added into each well and the plates were sealed and incubated at 37° C. without CO2 overnight. The plates were centrifuged for 1 min at 200×g. The resulting fluorescence was measured in a Spectramax plate reader (Molecular Devices) with a 400 nm excitation filter and a 510 nm emission filter. The fluorescence intensity of each well was corrected for the background observed in wells with non-IFNγ-treated cells and was expressed as a fraction of the intensity observed in wells of IFNγ-treated cells and DMSO only. Potencies were calculated by […] least squares fit to the four parameter logistic IC50 equation.

T1 sequence (P14902 whole entry): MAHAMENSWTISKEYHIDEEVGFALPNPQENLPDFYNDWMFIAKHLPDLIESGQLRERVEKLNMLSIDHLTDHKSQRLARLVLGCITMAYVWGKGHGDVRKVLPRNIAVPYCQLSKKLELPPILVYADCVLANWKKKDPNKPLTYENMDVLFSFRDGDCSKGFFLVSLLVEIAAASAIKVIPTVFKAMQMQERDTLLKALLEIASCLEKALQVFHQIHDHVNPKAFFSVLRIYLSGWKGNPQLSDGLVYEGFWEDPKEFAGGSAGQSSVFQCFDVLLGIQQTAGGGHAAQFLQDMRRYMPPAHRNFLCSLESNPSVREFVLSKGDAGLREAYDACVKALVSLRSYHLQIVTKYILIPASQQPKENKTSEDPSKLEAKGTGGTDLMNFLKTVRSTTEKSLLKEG

Compound | IC50 [1] [nM] | IC50 [2] [nM]
4-fluoro-N-(2-((6aS,7aR)-5-(2-methylpyrimidin-4-yl)-6,6a,7,7a-tetrahydro-5H-cyclopropa[c][1,5]naphthyridin-2-yl)propan-2-yl)benzamide [Example 30] | 126 | 6.6
O=C(NC1(c2ccc3c(n2)[C@@H]2C[C@@H]2CN3C(=O)OC2CC2)CC1)c1ccc(F)cc1 (single isomer, unassigned) [Example 21] | 946 | 6.03
CC(C)(NC(=O)c1ccc(F)cc1)c1ccc2c(n1)C1CC1CN2C(=O)OC1CC1 (single isomer, unassigned) [Example 32, cyclopropyl 2-(2-(4-fluorobenzamido)propan-2-yl)-6,6a,7,7a-tetrahydro-5H-cyclopropa[c][1,5]naphthyridine-5-carboxylate] | 778 | 7.56
CC(C)(NC(=O)c1ccc(F)cc1)c1ccc2c(n1)[C@@H]1C[C@@H]1CN2C(=O)OC1CC1 (single isomer, unassigned) [Example 33] | 465 | 4.05
O=C(NC1(c2ccc3c(n2)C2CC2CN3c2ccnc(C3CC3)n2)CC1)c1ccc(F)cc1 (stereo not drawn) [Example 15, N-(1-(5-(2-cyclopropyl-pyrimidin-4-yl)-6,6a,7,7a-tetrahydro-5H-cyclo-propa[c][1,5]naphthyridin-2-yl)cyclopropyl)-4-fluorobenzamide] | 50 | 4.4
CC(C)(O)c1nccc(N2CC3CC3c3nc(C4(NC(=O)c5ccc(F)cc5)CC4)ccc32)n1 (stereo not drawn) [Example 18, 4-fluoro-N-(1-(5-(2-(2-hydroxypropan-2-yl)pyrimidin-4-yl)-6,6a,7,7a-tetrahydro-5H-cyclopropa[c][1,5]naphthyridin-2-yl)cyclopropyl)benzamide] | 248 | 12
O=C(NC1(c2ccc3c(n2)C2CC2CN3c2ccnc(CO)n2)CC1)c1ccc(F)cc1 (stereo not drawn) [Example 19, 4-fluoro-N-(1-(5-(2-(hydroxymethyl)pyrimidin-4-yl)-6,6a,7,7a-tetrahydro-5H-cyclopropa[c][1,5]naphthyridin-2-yl)cyclopropyl)benzamide] | 151 | 11
CC(C)(NC(=O)c1ccc(F)cc1)c1ccc2c(n1)C1CC1CN2C(=O)C(F)(F)F (stereo not drawn) [Example 35, 2-(2-(4-fluorobenzamido)propan-2-yl)-5-(2,2,2-trifluoroacetyl)-6,6a,7,7a-tetrahydro-5H-cyclopropa[c][1,5]naphthyridin-1-ium] | 778 | 1300
CC(C)(C)OC(=O)N1CC2CC2c2nc(C(C)(C)NC(=O)c3ccc(F)cc3)ccc21 (stereo not drawn) [Example 55, tert-butyl 2-(2-(4-fluorobenz-amido)propan-2-yl)-6,6a,7,7a-tetrahydro-5H-cyclopropa[c]-[1,5]naphthyridine-5-carboxylate] | – | 16.6

The next compounds have a lower IC50 [2] than those just listed; values first:

IC50 [1] [nM] | IC50 [2] [nM] | Compound
37 | 2.92 | O=C(C1CC1)N1CC2CC2c2cc(C3(C(=O)Nc4ccc(F)cc4)CCC3)ccc21 (single isomer, unassigned) [Example 4, 1-(3-(cyclopropanecarbonyl)-1a,2,3,7b-tetrahydro-1H-cyclopropa[c]quinolin-6-yl)-N-(4-fluorophenyl)cyclobutanecarboxamide]
54 | 2.83 | CCC(NC(=O)c1ccc(F)cc1)c1ccc2c(n1)C1CC1CN2C(=O)OC1CC1 (single isomer, unassigned) [Example 37, cyclopropyl 2-(1-(4-fluorobenzamido)propyl)-6,6a,7,7a-tetrahydro-5H-cyclopropa[c][1,5]naphthyridine-5-carboxylate]
105 | 3.5 | CCc1nccc(N2CC3CC3c3nc(C4(NC(=O)c5ccc(F)cc5)CC4)ccc32)n1 (stereo not drawn) [Example 14, N-(1-(5-(2-ethylpyrimidin-4-yl)-6,6a,7,7a-tetrahydro-5H-cyclopropa[c][1,5]-naphthyridin-2-yl)cyclo-propyl)-4-fluorobenzamide]
32 | 2.6 | O=C(NC1(c2ccc3c(n2)C2CC2CN3c2ccnc(C3CC3)n2)CC1)c1ccc(F)cc1 (stereo not drawn) [Example 16, N-(1-(5-(2-cyclopropyl-pyrimidin-4-yl)-6,6a,7,7a-tetrahydro-5H-cyclo-propa[c][1,5]naphthyridin-2-yl)cyclopropyl)-4-fluorobenzamide]
463 | 3.23 | C[C@@H](NC(=O)c1ccc(F)cc1)c1ccc2c(n1)[C@@H]1C[C@@H]1CN2C(=O)OC1CC1 [Example 27, cyclopropyl (6aS,7aR)-2-((R)-1-(4-fluorobenzamido)-ethyl)-6,6a,7,7a-tetrahydro-5H-cyclopropa[c][1,5]-naphthyridine-5-carboxylate]
